Measured values published in patent publication US11479546B2, “Antimalarial hexahydropyrimidine analogues” (UCB Biopharma SRL, priority 2018, dated 2022).

The compounds below were run on Plasmodium falciparum 3D7 (assay: P. falciparum 3D7 asexual blood stage assay, Assay Procedure Version 2 (SYBR green readout)). Conditions: Plasmodium falciparum, 3D7, Erythrocyte, 72 h, Version 2 of the assay procedure (asterisk *); 72 h incubation in infected erythrocytes; 50,000 nM to 15 nM.
Format: cell-based
Description: Asexual Blood Stage Assay
The assay used to measure the effect of test compounds on a bloodstream stage of Plasmodium falciparum 3D7 strain employs SYBR green as the readout. This is a dye that binds to double stranded deoxyribonucleic acid (DNA) with a resulting increase in fluorescence, allowing detection of P. falciparum DNA in infected erythrocytes, and thereby providing a measure of parasite growth and propagation.
P. falciparum Culture Maintenance
Erythrocytes (A+blood) were prepared for both parasite culture and assay by washing 4 times with incomplete media (15.9 g RPMI 1640 (25 mM HEPES, L-glutamine), 1 g NaHCO3, 2 g glucose, 400 μL gentacin (500 mg/mL), 2 mL hypoxanthine solution (13.6 g/L in 0.1M NaOH pH 7.3) in 1 litre of media). The cells were centrifuged at 1800 g for 5 minutes, before decanting the supernatant and re-suspending in fresh incomplete media. On the final wash, the cells were re-suspended in complete media (incomplete media with 5 g/L AlbumaxII), and centrifuged at 1800 g for 3 minutes. This cell sediment was treated as 100% haematocrit.
P. falciparum 3D7 was cultured in erythrocytes at 5% haematocrit in complete media at 37° C. (1% O2, 3% CO2, balance N2). Cultures were split on a weekly basis to achieve a 1% parasitaemia in erythrocites at 5% haematocrit in fresh media. Culture media is replaced by fresh media every other day (2 times during the week).
[formula] where A=% inhibition at bottom; B=% inhibition at top; C=EC50; D=slope; x=inhibitor concentration; and y=% inhibition. […] Assay Procedure—Version 2
On day 1, test compounds were added to assay plates using Echo dispensing technology ([…] and 20 points titration). 50 nL of each compound dilution was added to 50 μL of culture (5% haematocrit, 0.5% parasitaemia) and incubated for 72 h at 37° C. (1% O2, 3% CO2, balance N2). Final concentrations of test compounds ranged from 50,000 nM to 15 nM, in […].
On day 4, 10 μL SYBR green (Invitrogen S7563 supplied as 10,000× concentrate in DMSO) pre-diluted to 3× concentrate with Lysis buffer (20 mM Tris pH 7.9, 5% EDTA, 0.16% w/v, 1.6% TX100 v/v) was added to the cultures and incubated in the dark, overnight, at room temperature.
On day 5, fluorescent signal was measured using a BioTek plate reader (excitation 485 nm, emission 528 nm). All data were processed using IDBS ActivityBase. Raw data were converted into percent inhibition through linear regression by setting the high inhibition control (mefloquine) as 100% and the no inhibition control (DMSO) as 0%. Quality control criteria for passing plates were as follows: Z′>0.5, S:B>3, % CV(no inhibition control)<15. The formula used to calculate Z′ is:
[formula] where μ denotes the mean; σ denotes the standard deviation; p denotes the positive control; and n denotes the negative control.
All EC50 curve fitting was undertaken using the following bi-phasic two site dose response using XLfit model 300 (IDBS):
[formula] where A=100 minus the top of the upper curve 1 and the bottom of lower curve; B=Hill slope; log(C)=IC50 concentration at lower site; log(D)=IC50 concentration at upper site; x=inhibitor concentration; and y=% inhibition.

IC50 [nM] | Compound
363 | C[C@@H]1C[C@@H](N2C(=N)N[C@](C)(c3cccc(Nc4ccc(OC(F)F)nc4)c3Cl)CC2=O)CCO1 (single isomer, unassigned; peak 1) [Example 191, (6S)-6-(2-Chloro-3-{[6-(difluoromethoxy)pyridin-3-yl]-amino}phenyl)-2-imino-6-methyl-3-[(2R*,4S*)-2-methyl-tetrahydropyran-4-yl]-hexahydropyrimidin-4-one (Peak 1)]
148 | C[C@@H]1C[C@@H](N2C(=N)N[C@](C)(c3cccc(Nc4ccc(C5CC5)nc4)c3Cl)CC2=O)CCO1 (single isomer, unassigned; peak 1) [Example 193, (6S)-6-{2-Chloro-3-[(6-cyclo-propylpyridin-3-yl)amino]-phenyl}-2-imino-6-methyl-3-[(2R*,4S*)-2-methyltetrahydro-pyran-4-yl]hexahydropyrimidin-4-one (Peak 1)]
244 | Cc1ccc(Nc2cccc([C@]3(C)CC(=O)N([C@H]4CCO[C@H](C)C4)C(=N)N3)c2Cl)cn1 (single isomer, unassigned; peak 1) [Example 195, (6S)-6-(2-Chloro-3-[(6-methyl-pyridin-3-yl)amino]phenyl}-2-imino-6-methyl-3-[(2R*,4S*)-2-methyltetrahydropyran-4-yl]-hexahydropyrimidin-4-one (Peak 1)]
3700 | C[C@H]1C[C@H](N2C(=N)N[C@](C)(c3cccc(Nc4ccc(OC(F)F)nc4)c3Cl)CC2=O)CCO1 (single isomer, unassigned; peak 2) [Example 192, (6S)-6-(2-Chloro-3-{[6-(difluoromethoxy)pyridin-3-yl]-amino}phenyl)-2-imino-6-methyl-3-[(2S*,4R*)-2-methyl-tetrahydropyran-4-yl]-hexahydropyrimidin-4-one (Peak 2)]
747 | C[C@H]1C[C@H](N2C(=N)N[C@](C)(c3cccc(Nc4ccc(C5CC5)nc4)c3Cl)CC2=O)CCO1 (single isomer, unassigned; peak 2) [Example 194, (6S)-6-{2-Chloro-3-[(6-cyclo-propylpyridin-3-yl)amino]-phenyl}-2-imino-6-methyl-3-[(2S*,4R*)-2-methyltetrahydro-pyran-4-yl]hexahydropyrimidin-4-one (Peak 2)]
552 | Cc1ccc(Nc2cccc([C@]3(C)CC(=O)N([C@@H]4CCO[C@@H](C)C4)C(=N)N3)c2Cl)cn1 (single isomer, unassigned; peak 2) [Example 196, (6S)-6-{2-Chloro-3-[(6-methyl-pyridin-3-yl)amino]phenyl}-2-imino-6-methyl-3-[(2S*,4R*)-2-methyltetrahydropyran-4-yl]-hexahydropyrimidin-4-one (Peak 2)]
158 | C[C@@H]1C[C@H](N2C(=N)N[C@](C)(c3cccc(Nc4cc(F)c5ccnn5c4)c3Cl)CC2=O)CCO1 (stereo in doubt) [Example 137, (6S)-6-{2-Chloro-3-[(4-fluoro-pyrazolo[1,5-a]pyridin-6-yl)-amino]phenyl}-2-imino-6-methyl-3-[(cis)-2-methyl-tetrahydropyran-4-yl]-hexahydropyrimidin-4-one]
19 | C[C@@H]1C[C@H](N2C(=N)N[C@](C)(c3cccc(Nc4ccc(OC(F)F)nc4)c3Cl)CC2=O)CCO1 (stereo in doubt) [Example 138, (6S)-6-(2-Chloro-3-{[6-(difluoromethoxy)pyridin-3-yl]-amino}phenyl)-2-imino-6-methyl-3-[(cis)-2-methyl-tetrahydropyran-4-yl]-hexahydropyrimidin-4-one]

Further lines, the compound ahead of its results:

Compound | IC50 [nM]
CC1(C)CC(N2C(=N)N[C@](C)(c3cccc(Nc4ccn(C5CC5)c(=O)c4)c3Cl)CC2=O)CCO1 (single isomer, unassigned) [Example 205, (6S)-6-{2-Chloro-3-[(1-cyclo-propyl-2-oxopyridin-4-yl)-amino]phenyl}-3-[(4R*)-2,2-dimethyltetrahydropyran-4-yl]-2-imino-6-methylhexahydro-pyrimidin-4-one] | 6210
C[C@@]1(c2cccc(Nc3ccc(OC(F)F)nc3)c2Cl)CC(=O)N(C2CCOCC2)C(=N)N1 [Example 42, (6S)-6-(2-Chloro-3-{[6-(difluoromethoxy)pyridin-3-yl]-amino}phenyl)-2-imino-6-methyl-3-(tetrahydropyran-4-yl)hexahydropyrimidin-4-one] | 269
C[C@@]1(c2cccc(Nc3ccccc3S(C)(=O)=O)c2Cl)CC(=O)N(C2CCOCC2)C(=N)N1 [Example 43, (6S)-6-[2-Chloro-3-(2-methyl-sulfonylanilino)phenyl]-2-imino-6-methyl-3-(tetrahydro-pyran-4-yl)hexahydropyrimidin-4-one] | 63
Cc1cnc(Nc2cccc([C@]3(C)CC(=O)N(C4CCOCC4)C(=N)N3)c2Cl)cn1 [Example 44, (6S)-6-{2-Chloro-3-[(5-methyl-pyrazin-2-yl)amino]phenyl}-2-imino-6-methyl-3-(tetrahydro-pyran-4-yl)hexahydropyrimidin-4-one] | 815
C[C@@]1(c2cccc(Nc3ccc(OC(F)(F)F)nc3)c2Cl)CC(=O)N(C2CCOCC2)C(=N)N1 [Example 45, (6S)-6-(2-Chloro-3-{[6-(trifluoromethoxy)pyridin-3-yl]-amino}phenyl)-2-imino-6-methyl-3-(tetrahydropyran-4-yl)hexahydropyrimidin-4-one] | 305
C[C@@]1(c2cccc(Nc3cncc4ccccc34)c2Cl)CC(=O)N(C2CCOCC2)C(=N)N1 [Example 46, (6S)-6-[2-Chloro-3-(isoquinolin-4-ylamino)phenyl]-2-imino-6-methyl-3-(tetrahydropyran-4-yl)hexahydropyrimidin-4-one] | 425
COc1cc(C#N)ccc1Nc1cccc([C@]2(C)CC(=O)N(C3CCOCC3)C(=N)N2)c1Cl [Example 47, 4-{2-Chloro-3-[(4S)-2-imino-4-methyl-6-oxo-1-(tetrahydro-pyran-4-yl)hexahydropyrimidin-4-yl]anilino}-3-methoxy-benzonitrile] | 171
C[C@@]1(c2cccc(Nc3cnccc3C#N)c2Cl)CC(=O)N(C2CCOCC2)C(=N)N1 [Example 48, 3-{2-Chloro-3-[(4S)-2-imino-4-methyl-6-oxo-1-(tetrahydro-pyran-4-yl)hexahydropyrimidin-4-yl]anilino}pyridine-4-carbo-nitrile] | 386
COc1ncc(Nc2cccc([C@]3(C)CC(=O)N(C4CCOCC4)C(=N)N3)c2Cl)cc1F [Example 49, (6S)-6-{2-Chloro-3-[(5-fluoro-6-methoxypyridin-3-yl)amino]-phenyl}-2-imino-6-methyl-3-(tetrahydropyran-4-yl)-hexahydropyrimidin-4-one] | 468
COc1ncccc1Nc1cccc([C@]2(C)CC(=O)N(C3CCOCC3)C(=N)N2)c1Cl [Example 50, (6S)-6-{2-Chloro-3-[(2-methoxypyridin-3-yl)amino]-phenyl}-2-imino-6-methyl-3-(tetrahydropyran-4-yl)-hexahydropyrimidin-4-one] | 373

Same assay, conditions: Version 2 of the assay procedure (asterisk *); 72 h incubation in infected erythrocytes; 50,000 nM to 15 nM

IC50 [nM] | Compound
1730 | CC1(C)CC(N2C(=N)N[C@](C)(c3cccc(Nc4ccc(C5CC5)nc4)c3Cl)CC2=O)CCO1 (single isomer, unassigned) [Example 158, (6S)-6-{2-Chloro-3-[(6-cyclo-propylpyridin-3-yl)amino]-phenyl}-3-[(4S*)-2,2-dimethyl-tetrahydropyran-4-yl]-2-imino-6-methylhexahydropyrimidin-4-one]
